Earlier results in US12569571B2, “Salt responsive nanogels and nanoparticles” (HOWARD UNIVERSITY, priority 2016, dated 2026).

Details: studies have shown

Q: Which “pKa (apparent pKa for PEI)” value does the source give for `CNC` [dimethylamine] here?
A: The value was “about 10”.
